Results published in patent US4745100A, “Stimulation of tear secretion” (Eye Research Institute of Retina Foundation, priority 1986, dated 1988).
Entries after “also recorded” stand apart in the source; their conditions may differ. No end group written: not given here.

Assays:
rabbits with dry eyes = experiment: Tear film osmolality in dry eye rabbit after topical test drop; assay type: in vivo; settings: 10 μl topical drop
Method: In vivo examples of the invention were conducted on rabbits with dry eyes. The dry eye disorder is created by surgically closing the duct that carries fluid from the main lacrimal gland to the tear film and surgically removing the nictitans and harderian glands. This leaves intact only the accessory glands that lie on the ocular surface. These rabbits develop increased tear film osmolality soon after the operation, a finding that is understood to be due to decreased tear production, and that is characteristic of dry eye. It is recognized that results of ophthalmologic tests using rabbits has close correlation with humans, and therefore the results carry over to humans.
The effect of topically applied isotonic buffer solution with and without VIP on tear film osmolality was studied in the dry eye rabbit. All test drops were ten μl in volume and were applied in each case six minutes after the instillation of proparacaine, which anesthetizes the surface of the eye and prevents reflex tearing. Tear samples were taken with a micropipette system, in the manner described in the article entitled "Osmolarity of Tear Microvolumes in Keratoconjunctivitis Sicca", by Gilbard et al, Arch Ophthalmol 96:677, 1978. Osmolality was measured by freezing-point depression.
The following protocol was used for each drop tested. Six minutes prior to instillation of the test drop proparacaine was instilled. At zero time a tear sample was taken for measurement of osmolality. At one minute the test drop was instilled. At six and at sixteen minutes, tear samples were taken for osmolality measurements. The procedure for instilling each test drop is that the drop of buffered solution was first instilled in the dry eye and measurements were taken followed by a drop of buffered solution containing VIP. The following test drops were instilled: (1) buffer solution, (2) buffer solution containing 2×10^-8 M VIP, (3) buffer solution, (4) buffer solution containing 2×10^-7 M VIP, (5) buffer solution, (6) buffer solution containing 2×10^-6 M VIP. The results are shown in FIGS. 1A, 1B, and 1C and FIGS. 2A, 2B, and 2C, where FIGS. 1 and 2 each represent the results obtained from the same rabbit.
In separate experiments, the effect of topically applied isotonic buffer solution with or without glucagon or secretin on tear film osmolality was studied in dry eye rabbits. All test drops were ten microliters in volume. Tear osmolality was measured one minute prior to drop instillation and five and fifteen minutes after drop instillation. A drop of buffered solution was first instilled in the dry eye and measurements were taken followed by a drop of buffered solution containing glucagon or secretin, depending on the test.

[1] = additives needed; cited from earlier work
dry eye rabbits = experiment: Elimination of tracer Tc99m (sodium pertechnetate) from the tear film of dry eye rabbits; assay type: in vivo, rabbit; settings: VIP 2×10^-6 M in 10 μl radioactive buffer
Method: In a separate example, dry eye rabbits were studied by examining the rate of elimination of a tracer substance technectium, Tc^99m, as sodium pertechnetate from the tear film. Essentially equivalent counts of Tc^99m were placed in ten microliters of, in some instances, a buffer solution to serve as a control, and in other instances, a buffer solution containing 2×10^-6 M VIP. Radioactivity present in the tear film was measured over contiguous fifteen second periods for thirty minutes with a gamma camera, and the measurements stored on a computer. The following protocol was used: Rabbits were anesthetized with IM rompun and ketamine. At zero time proparacaine was applied. At five minutes, the radioactive buffer with VIP was instilled in the eye. Radioactivity present in the tear film was then recorded as described. After thirty minutes, proparacaine was again instilled in the eye and the procedure repeated with radioactive buffer alone. […] This increased rate of tracer washout is understood to be indicative of increased tear secretion. In a second similar experiment, the effect of VIP was first tested, and then radioactive buffer alone, and then the effect of VIP again.

[2] = tested on: rat exorbital lacrimal gland; settings: cited from earlier work
[3] = tested on: main (orbital) lacrimal gland; settings: administered intravenously to rabbits; cited from earlier work
lacrimal gland = settings: administered intra-arterially; cited from earlier work

## glucagon
Rabbits with dry eyes; glucagon 2×10^-6, 2×10^-5, 2×10^-4 M, 5 and 15 min after drop, FIG. 6
  effect on tear film osmolality versus buffer solution alone: lowers tear film osmolality more effectively than buffer solution alone; also recorded: dose-dependent decrease in tear film osmolality
[1]
  solubility: requires the additives glycerin and lactose to render it soluble

## secretin
Rabbits with dry eyes; secretin 2×10^-7, 2×10^-6, 2×10^-5 M, 5 and 15 min after drop, FIG. 7
  effect on tear film osmolality versus buffer solution alone: lowers tear film osmolality more effectively than buffer solution alone; also recorded: dose-dependent decrease in tear film osmolality

## vasoactive intestinal peptide (HSDAVFTDNYTRLRKQMAVKKYLNSILN; ends and bridges not checked; UniProt P01282 125-152, looked up) [VIP]
Rabbits with dry eyes; VIP 2×10^-6 M, FIGS. 3A, 3B
  effect on tear film osmolality versus placebo, same experiment as CCK: decreased tear film osmolality more effectively than a placebo in one of two trials
Rabbits with dry eyes; VIP 2×10^-8, 2×10^-7, 2×10^-6 M, samples at 6 and 16 min, FIGS. 1 and 2
  effect on tear film osmolality versus buffer solution alone: lowers the tear film osmolality more effectively than buffer solution alone; also recorded: dose-dependent decrease in tear film osmolality
Dry eye rabbits; topical, dry eye rabbit, placebo -0.82, FIG. 4
  slope of the elimination curve of Tc99m from tear film, first 15 minutes: -1.65
Dry eye rabbits; two VIP tests, FIG. 5
  slope of the elimination curves versus radioactive buffer alone, second experiment: substantially steeper than for radioactive buffer alone
[2]
  protein secretion in vitro: stimulate protein secretion in vitro
[3]
  main (orbital) lacrimal gland secretion: can stimulate main (orbital) lacrimal gland secretion
Lacrimal gland
  lacrimal gland secretion: stimulate lacrimal gland secretion

B1: Cholecystokinin (peptide, UniProt P06307 21-115, looked up)
Cholecystokinin: QPVPPADPAGSGLQRAEEAPRRQLRVSQRTDGESRAHLGALLARYIQQARKAPSGRMSIVKNLQNLDPSHRISDRDYMGWMDFGRRSAEEYEYPS
modifications: Cholecystokinin
notes: gastrointestinal hormone tested topically as comparison
Rabbits with dry eyes; CCK 2×10^-4 M, FIG. 3B
  effect on tear osmolality versus placebo: did not lower tear osmolality more effectively than a placebo
Lacrimal gland
  lacrimal gland secretion: stimulate lacrimal gland secretion
